{"source": "patent US8017350B2", "about": "“Glimepiride- and insulin-induced glycosylphosphatidylinositol-specific phospholipase C regulation” (Sanofi-Aventis Deutschland GmbH, priority 2004, dated 2011)", "key": {"PI-PLC (B. cereus)": {"target": "T1, PI-PLC (B. cereus) (Bacillus cereus, UniProt P14262)", "T1 construct": "purchased SigmalAldrich (Deisenhofen, Germany)", "T1 sequence (P14262 32-329 limits assumed)": "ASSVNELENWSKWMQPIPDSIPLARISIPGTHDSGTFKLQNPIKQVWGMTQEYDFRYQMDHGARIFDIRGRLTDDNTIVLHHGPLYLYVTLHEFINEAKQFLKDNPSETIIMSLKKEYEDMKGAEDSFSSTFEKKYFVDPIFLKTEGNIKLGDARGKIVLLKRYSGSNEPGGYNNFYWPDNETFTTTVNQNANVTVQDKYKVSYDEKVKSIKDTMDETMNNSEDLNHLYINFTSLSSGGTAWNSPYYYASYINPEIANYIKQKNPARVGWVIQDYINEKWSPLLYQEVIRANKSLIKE", "experiment": "PI-PLC (B. cereus) assay, AChE substrate, TX-114 partitioning", "format": "biochemical", "procedure": "GPI-PLD (rat serum) was assayed according to “Hari et al. (1997) Biochim. Biophys. Acta 1355: 293-302” by incubation with 10 μl of human placental aP solution (100 U/ml in 10 mM Hepes/NaOH, pH 7.0, 150 mM NaCl) in 100 μl of 200 mM Tris/maleate (pH 7.0) and 1% Nonidet P-40 for 10 min at 37° C. and subsequent termination of the reaction by addition of 0.4 ml of ice-cold stop buffer (10 mM Hepes/NaOH, pH 7.0, 150 mM NaCl, 0.1 mM MgCl2 and 0.01 mM zinc acetate). GPI-PLC (T. brucei) was assayed as described in “Mensa-Wilmot et al. (1995) Methods Enzymol. 250: 641-655” by incubation with 5 μl of human placental aP solution (see above) in 50 μl of 50 mM Tris/HCl (pH 8.0), 0.25% Nonidet P-40 and 5 mM EDTA for 30 min at 37° C. and subsequent termination of the reaction by addition of 0.45 ml of stop buffer. PI-PLC (B. cereus) and adipocyte GPI-PLC (5-25 μg plasma membranes or hc/lcDIGs) were assayed by incubation with 10 μl of bovine erythrocyte acetylcholinesterase (AChE) solution (12 U/ml in 10 mM Tris/HCl, pH 7.4, 144 mM NaCl, 0.1% TX-100) in 100 μl of 20 mM Hepes/KOH (pH 7.8), 144 mM NaCl, 0.1% TX-100, 0.2 mM MgCl2 for 1 h at 25° C. and subsequent termination by adding 5 μl of glacial acetic acid and then 0.4 ml of 10 mM Tris/HCl (pH 7.4), 144 mM NaCl. Each reaction mixture was subjected to TX-114 partitioning (see below).\nPelleted hc/lcDIGs (10-50 μg protein) or (G)PI-PLC reaction mixtures (0.5 ml) were separated into amphiphilic and hydrophilic proteins using partitioning between TX-114-enriched and depleted phases according to “Bordier, C., (1981) J. Biol, Chem. […]” by suspending in 1 ml of ice-cold TX-114 (1%), 25 mM Tris/HCl (pH 7.4), 144 mM NaCl or mixing with 0.5 ml of ice-cold TX-114 (2%), respectively. After incubation for 1 h on ice, the mixture was layered onto a cushion of 0.4 ml of 0.25 M sucrose and 25 mM Tris/HCl (pH 7.4) on ice. Phase separation was induced by warming up to 37° C. and subsequent centrifugation (10,000×g, 1 min). After re-extraction of the lower TX-114-enriched phase, aliquots of the pooled upper TX-114-depleted phase were measured for 5′-Nuc, aP and AChE activity or precipitated (15 polyethylene glycol 4000) for SDS-PAGE analysis.\nTable 1: GPI-PLC of hcDIGs from rat adipocytes, GPI-PLC from T. brucei and PI-PLC from B. cereus were incubated with solubilized and partially purified bovine erythrocyte AChE or human placental aP in the absence or presence of increasing concentrations (0.05 μM-1 mM) of the inhibitors indicated under appropriate conditions (see Materials and Methods). Cleavage rate was calculated from the amount of hydrophilic AChE and aP activity recovered with the TX-114-depleted phase upon TX-114 partitioning. Means+SD from at least 3 independent incubations with partitioning/enzyme assays in quadruplicate are given. n.a., not applicable.\nPurified (G)PI-PLC/D from B. cereus, rat serum and T. brucei as well as total plasma membranes (PM) and hc/lcDIGs prepared from isolated rat adipocytes were incubated (10 min, 30° C.) with increasing concentrations of GPI-2350 and then assayed for amphiphilic-to-hydrophilic conversion of AChE and aP by TX-114 partitioning (see Materials and Methods). The lipolytic activity was calculated as % of the control reaction in the absence of GPI-2350 (set at 100%). Means+SD of at least 4 independent incubations with AChE and aP activity measurements in triplicate each are given."}, "[1]": {"target": "phospholipase A2 (honey bee venom) (Apis mellifera, UniProt P00630)", "sequence (P00630 34-167 limits assumed)": "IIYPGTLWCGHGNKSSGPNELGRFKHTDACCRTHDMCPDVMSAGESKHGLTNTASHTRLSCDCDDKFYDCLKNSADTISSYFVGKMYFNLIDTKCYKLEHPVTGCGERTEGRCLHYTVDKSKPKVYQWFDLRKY", "format": "biochemical", "details": "50 μM"}, "Stability of compound 3": {"experiment": "Stability of compound 3", "format": "physicochemical", "details": "4° C.", "procedure": "As starting material, racemic 1,4,5,6-tetra-O-benzyl-myo-inositol (hereinafter: compound 1) was prepared by a procedure as disclosed in “Zhai, H.-X. et al. (1995) Tetrahedron Lett. 36: 7403-7406”. Compound 1 was then phosphorylated with dodecylphosphonic dichloride in the presence of triethylamine and dimethyl-aminopyridine to yield tetra-O-benzyl-myo-inositol-1,2-cyclo-dodecylphosphonic acid (hereinafter: compound 2). By catalytic hydrogenation with 10% Pd on charcoal, compound 2 was debenzylated to myo-inositol-1,2-cyclo-dodecylphosphonic acid (hereinafter: compound 3 or GPI-2350) as a mixture of diastereomers. For synthesis of compound 2 (FIG. 1), 1 g (1.8 mmol) of compound 1 was dissolved in 60 ml of methylene chloride and 1 ml of triethylamine; 200 mg dimethyl-aminopyridine and 1 g ([…]) of dodecylphosphonic dichloride were added. This reaction solution was allowed to stand (45 min, room temperature). Then 50 ml of ethyl acetate were added and the mixture was filtered on silica gel. After concentration of the solvent, the residue was purified by flash chromatography (n-heptane/ethyl acetate, 1/1, by vol.). Yield of compound 2: 580 mg (43%) of a white amorphous solid. TLC: n-heptane/ethyl acetate (1/1, by vol.), Rf=0.7. MS: (M+Li)^+=761.4, calculated […], M=754.9. […] MS: (M+Li)^+=401.2, calculated C18H35O7P, M=394.4."}}}
{"smiles": "CCCCCCCCCCCCP1(=O)O[C@@H]2[C@H](O)[C@@H](O)[C@H](O)[C@@H](O)[C@@H]2O1", "note": "(stereo partly drawn) [GPI-2350, myo-inositol-1,2-cyclo-dodecylphosphonic acid]", "values": [{"measurement": "IC50", "setting": "PI-PLC (B. cereus); IC50, Table 1, inhibitor 0.05 μM-1 mM", "value": "10 to 20", "unit": "µM"}, {"measurement": "IC50", "setting": "PI-PLC (B. cereus); apparent IC50, FIG. 2", "value": 10, "unit": "µM"}, {"measurement": "inhibition at 1000 µM", "setting": "PI-PLC (B. cereus); read-out: inhibition % at 1 mM", "value": 75, "unit": "%"}, {"measurement": "reversal of half-maximal inhibition", "setting": "PI-PLC (B. cereus); upon 10-fold dilution with excess of fresh GPI-protein substrate", "value": "completely reversed"}, {"measurement": "effect on PLA2", "setting": "[1]", "value": "not significantly affected"}, {"measurement": "stability as dried amorphous solid", "setting": "Stability of compound 3", "value": "as dried amorphous solid for years at 4 °C"}]}
